Experimental data taken from US4303592A (priority 1980, dated 1981).
Read-outs that look alike come from different tables or passages of the source.

How the values were obtained:
trypsin [1] = conditions: large excess with respect to enzyme; cited from earlier work
chymotrypsin [2] = conditions: large excess with respect to enzyme; cited from earlier work
chymotrypsin [3] = assay: inhibition of chymotrypsin by m-amidinophenylmethylsulfonylfluoride; type: biochemical; conditions: 30 minutes, four-fold molar excess
Procedure: (§1) m-Amidinophenylmethylsulfonylfluoride was tested for inhibitory activity against bovine trypsin and chymotrypsin.

Trypsin [4] = molecular target: T1, Trypsin (Bos taurus, UniProt P00760); assay: inactivation of trypsin by meta amidinophenylmethylsulfonylfluoride; type: biochemical, bovine; conditions: equimolar or greater amounts of reagent; FIG. 2
T1 sequence (P00760 24-246): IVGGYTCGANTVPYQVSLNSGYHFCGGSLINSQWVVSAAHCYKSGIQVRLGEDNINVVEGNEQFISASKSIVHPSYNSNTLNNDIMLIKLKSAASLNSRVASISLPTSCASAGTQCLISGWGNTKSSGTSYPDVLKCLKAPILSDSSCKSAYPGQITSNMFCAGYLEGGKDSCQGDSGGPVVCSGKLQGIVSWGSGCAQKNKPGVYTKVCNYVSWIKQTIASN
Procedure: as §1

serine proteases [5] = assay: serine protease inactivation by known inactivators (background); type: biochemical; conditions: approximately 2:1 reagent:enzyme; Table 1
Trypsin [6] = molecular target: T1, Trypsin; assay: inhibition/inactivation of bovine trypsin; type: biochemical; conditions: for % Activity Remaining: Trypsin 60.6 μM, PAPMSF 127 μM
acetyl cholinesterase = assay: inhibition of bovine acetyl cholinesterase
Cl-s = molecular target: T2, Cl-s (Homo sapiens, UniProt P09871); assay: inhibition/inactivation of human Cls; type: biochemical; conditions: for % Activity Remaining: Cl-s 27.5 μM, PAPMSF 64 μM
T2 sequence (P09871 438-688 limits assumed): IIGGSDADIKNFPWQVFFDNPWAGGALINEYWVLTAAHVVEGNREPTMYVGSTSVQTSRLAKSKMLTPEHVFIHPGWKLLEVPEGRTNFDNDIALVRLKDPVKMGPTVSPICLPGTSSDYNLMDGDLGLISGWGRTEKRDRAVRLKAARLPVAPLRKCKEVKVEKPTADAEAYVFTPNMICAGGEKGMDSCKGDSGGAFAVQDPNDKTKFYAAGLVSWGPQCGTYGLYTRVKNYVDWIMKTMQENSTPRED
T2 sequence (P09871 16-437 partner limits assumed): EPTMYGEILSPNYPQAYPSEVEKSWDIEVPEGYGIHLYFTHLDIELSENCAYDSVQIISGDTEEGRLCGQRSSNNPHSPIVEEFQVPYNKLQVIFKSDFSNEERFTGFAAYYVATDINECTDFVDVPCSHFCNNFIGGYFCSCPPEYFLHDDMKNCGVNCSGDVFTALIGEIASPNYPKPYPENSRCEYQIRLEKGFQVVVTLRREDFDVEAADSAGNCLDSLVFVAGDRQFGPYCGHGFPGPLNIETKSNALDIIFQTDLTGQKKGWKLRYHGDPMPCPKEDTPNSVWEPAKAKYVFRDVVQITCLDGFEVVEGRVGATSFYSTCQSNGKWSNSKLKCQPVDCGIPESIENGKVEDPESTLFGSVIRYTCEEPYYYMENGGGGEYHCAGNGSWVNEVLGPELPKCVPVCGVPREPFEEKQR

Cl-r = assay: inhibition/inactivation of human Clr; type: biochemical
serine proteases [7] = assay: reactivity of para versus meta form
chymotrypsin [8] = assay: inhibition of bovine chymotrypsin; type: biochemical; conditions: neutral pH, approximately 10-fold excess of reagent over enzyme; FIG. 1
Thrombin = Thrombin (Homo sapiens, UniProt P00734); assay: inhibition/inactivation of human thrombin; type: biochemical; conditions: for % Activity Remaining: Thrombin 74.5 μM, PAPMSF 159 μM
[9] = neutral pH, approximately 10-fold excess of reagent over enzyme, FIG. 1

## O=S(=O)(F)Cc1ccccc1 [Phenylmethanesulfonylfluoride]
Trypsin [1]
  inhibition (in words): inhibits both trypsin and chymotrypsin
Chymotrypsin [2]
  inhibition (in words): inhibits both trypsin and chymotrypsin

## N=C(N)c1cccc(CS(=O)(=O)F)c1 [MAPMSF, m-Amidinophenylmethylsulfonylfluoride]
Chymotrypsin [3]
  loss of activity: no loss of activity
Trypsin [4]
  inactivation (in words): slowly inactivated

## N=C(N)c1ccc(CS(=O)(=O)F)cc1 [PAPMSF, p-amidinophenylmethylsulfonylfluoride]
Serine proteases [5]
  inhibition at lower concentrations (in words): still an effective inhibitor
Trypsin [6]; 1 min
  % Activity Remaining: 0%
Trypsin [6]; 5 min
  % Activity Remaining: 0%
Trypsin [6]; 10 min
  % Activity Remaining: 0%
Trypsin [6]; dialysis of inactivated trypsin
  recovery of enzymatic activity after dialysis (irreversibility): did not lead to recovery of enzymatic activity
Trypsin [6]; [9]
  inactivation (in words): rapidly inactivated
Trypsin [6]; pH 3.0, 5.0 or 7.4
  rate of inactivation of trypsin, pH dependence: essentially unchanged
Acetyl cholinesterase
  reaction with acetyl cholinesterase (in words): does not react with acetyl cholinesterase
Acetyl cholinesterase; inferred from lack of reaction with acetyl cholinesterase
  toxic properties compared with diisopropylfluorophosphate (in words): does not have the toxic properties previously described for diisopropylfluorophosphate
Acetyl cholinesterase; [9]
  inhibition (in words): not inhibited
stability; aqueous solutions above pH 8
  stability in water at high pH: can hydrolyze to sulfonic acid in water at high pH
stability; methanol, acetone, ethanol, dimethylsulfoxide, acetonitrile, dimethylformamide and the like
  stability in solution in organic solvents: stable in solution in organic solvents
stability; pH and contact with aqueous based body fluids
  stability of salts at physiological conditions: good stability at physiological conditions
Cl-s; 1 min
  % Activity Remaining: 60%
Cl-s; 5 min
  % Activity Remaining: 59%
Cl-s; 10 min
  % Activity Remaining: 52%
Cl-s; [9]
  inactivation (in words): rapidly inactivated
Cl-r; Cl-r 4.8 μgm/ml, PAPMSF 130 μM, 10 min
  % Activity Remaining: 25%
Cl-r; [9]
  inactivation (in words): rapidly inactivated
Serine proteases [7]
  reactivity / activity relative to meta form: higher activity than the meta form
Solubility in water
  solubility: ≤ 10 mM
Chymotrypsin [8]
  inhibition (in words): not inhibited
Thrombin; 1 min
  % Activity Remaining: 26%
Thrombin; 5 min
  % Activity Remaining: 24%
Thrombin; 10 min
  % Activity Remaining: 21%
Thrombin; [9]
  inactivation (in words): rapidly inactivated
